Data from patent publication US20250320213A1, “Nitrogen-Containing Heterocyclic Compounds” (Pfizer Inc., priority 2024, published 2025).
pEC50, pIC50: −log10 of the molar value. Where two headings read alike, the source gives them in different places.

Key:
STAT6 = target: T1, STAT6 (Homo sapiens, UniProt P42226); assay: STAT6 Reporter Luciferase Assay (IL-13 stimulated HaCaT keratinocyte NanoLuc reporter cells); format: cell-based; conditions: read-out: Reporter EC50
T1 construct: stably transfected HaCaT keratinocyte cell line, which expresses NanoLuc luciferase reporter gene under the transcriptional control of the STAT6 responsive promoter; endogenous in cells; host or cells: HaCaT keratinocyte reporter cell line (stably transfected with a NanoLuc reporter)
T1 sequence (P42226 1-847): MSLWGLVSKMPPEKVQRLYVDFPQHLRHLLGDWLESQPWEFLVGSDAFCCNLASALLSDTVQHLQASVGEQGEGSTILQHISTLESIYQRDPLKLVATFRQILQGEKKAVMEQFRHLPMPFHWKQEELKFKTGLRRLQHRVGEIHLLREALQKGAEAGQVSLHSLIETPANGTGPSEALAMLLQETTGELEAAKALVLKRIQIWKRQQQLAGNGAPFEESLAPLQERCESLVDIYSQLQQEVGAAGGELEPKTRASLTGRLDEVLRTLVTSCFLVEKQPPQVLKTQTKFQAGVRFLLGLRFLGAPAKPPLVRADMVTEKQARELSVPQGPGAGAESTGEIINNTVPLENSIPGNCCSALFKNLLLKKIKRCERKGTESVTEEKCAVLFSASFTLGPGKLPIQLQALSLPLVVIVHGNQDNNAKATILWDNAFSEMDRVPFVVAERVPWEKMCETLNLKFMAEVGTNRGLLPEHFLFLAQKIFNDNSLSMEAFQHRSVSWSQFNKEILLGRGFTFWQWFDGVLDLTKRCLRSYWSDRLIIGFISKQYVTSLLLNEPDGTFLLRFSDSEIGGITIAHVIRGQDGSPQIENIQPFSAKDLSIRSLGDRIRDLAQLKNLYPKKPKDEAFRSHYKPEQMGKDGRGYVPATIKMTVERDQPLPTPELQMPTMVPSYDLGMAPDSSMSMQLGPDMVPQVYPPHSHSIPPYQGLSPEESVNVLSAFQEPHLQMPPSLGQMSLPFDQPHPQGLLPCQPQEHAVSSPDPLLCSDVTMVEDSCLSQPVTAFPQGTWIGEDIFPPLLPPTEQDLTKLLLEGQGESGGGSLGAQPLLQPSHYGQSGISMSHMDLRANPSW
How it was run: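 Luminescence from a NanoLuc reporter driven by the STAT6-responsive IL-13Ra2 promoter in HaCaT keratinocytes serves as the read-out. Compounds are given 2 h before a 4 h stimulation with 0.12 nM IL-13.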

[1] = system: CCL17 secretion in peripheral human whole blood; assay: Human Whole Blood (HWB) CCL17 TR-FRET Assay (IL-13 stimulated CCL17 secretion); format: cell-based; conditions: Homo sapiens, 48 h
Description: The IC50 (half-maximal concentration required for inhibition) of compounds for the inhibition of CCL17 secretion in peripheral human whole blood, stimulated through the IL-13-IL-13 receptor/IL-4 receptor pathway was evaluated with a TR-FRET sandwich ELISA CCL17 (TARC) Assay Kit (Bioauxilium).
Test compounds (solubilized and serially diluted in DMSO, in an 11 point, 3-fold dilution series in duplicate) were spotted, 80 nL per well, into a 384 well v-bottom polypropylene plate. Human whole blood was collected from a peripheral vein, 714 units of sodium heparin was added for every 50 mL of blood collected. Sixty μL per well of blood was added to the compound plate. The blood plate was incubated for two hours at 37° C. After two hours, CCL17 production was stimulated with the addition of 20 μL per well of IL13 (R&D Systems) in HBSS with calcium and magnesium, with a final concentration of 10 ng/mL IL13. The plate containing blood, compound, and IL-13 was incubated at 37° C. for 48 hours, to allow for CCL17 production. After 48 hours, the plate was centrifuged at 1,500 revolutions per minute (RPM) for 7 minutes, with no braking. The CCL17 TR-FRET Assay Kit detection reagent was prepared according to kit instructions and 4 μL per well of the antibody cocktail was added to a 384-well white low volume non-binding coated plate (Corning). Sixteen μL of serum from the centrifuged blood plate was transferred to the detection plate containing the TR-FRET antibody cocktail. The plate was centrifuged briefly, then covered and incubated 16 hours at room temperature. The plate was then read on an EnVision 2105 multilabel reader (PerkinElmer) with settings for TR-FRET Ratio=10,000×(fluorescence intensity 665 nm/fluorescence intensity 615 nm).

[2] = STAT6 NanoLuc luciferase reporter, IL-13 stimulated HaCaT keratinocyte cells
[3] = inhibition of CCL17 secretion in human whole blood, 10 ng/mL IL13, 48 hours
[4] = IL-13 stimulated HaCaT STAT6 NanoLuc reporter cells
[5] = human whole blood, IL-13 stimulated

pEC50 (STAT6; [2])	pIC50 [1, 3]	pEC50 (STAT6; [4])	pIC50 [1, 5]	Structure (SMILES)
7.82	7.68	–	–	CC(C)n1nc(C(=O)NCc2ccc(NC(=O)N3CCC(C)(O)C3)cc2)c2c1CCN(c1ccc(C(=O)N(C)C)cn1)C2 (racemic) [Example 160, rac-(R)-5-(5-(dimethylcarbamoyl)pyridin-2-yl)-N-(4-(3-hydroxy-3-methylpyrrolidine-1-carboxamido)benzyl)-1-isopropyl-4,5,6,7-tetrahydro-1H-pyrazolo[4,3-c]pyridine-3-carboxamide]
7.89	7.35	–	–	CC(C)n1nc(C(=O)NCc2ccc(NC(=O)N3CCC4(CNCCO4)C3)cc2)c2c1CCN(c1ccc(C(=O)N(C)C)cn1)C2 (racemic) [Example 164, rac-(R)-N-(4-((5-(5-(dimethylcarbamoyl)pyridin-2-yl)-1-isopropyl-4,5,6,7-tetrahydro-1H-pyrazolo[4,3-c]pyridine-3-carboxamido)methyl)phenyl)-6-oxa-2,9-diazaspiro[4.5]decane-2-carboxamide]
8.30	7.24	–	–	CO[C@@H]1CN(C(=O)Nc2ccc(CNC(=O)c3nn(C(C)C)c4c3CN(c3ccc(C(=O)N(C)C)cn3)CC4)cc2)C[C@H]1F (racemic) [Example 171, rac-5-(5-(dimethylcarbamoyl)pyridin-2-yl)-N-(4-((3R,4R)-3-fluoro-4-methoxypyrrolidine-1-carboxamido)benzyl)-1-isopropyl-4,5,6,7-tetrahydro-1H-pyrazolo[4,3-c]pyridine-3-carboxamide]
7.40	6.67	–	–	CC(C)n1nc(C(=O)NCc2ccc(NC(=O)N3CCCC3CO)cc2)c2c1CCN(c1ccc(C(=O)N(C)C)cn1)C2 (racemic) [Example 174, rac-(R)-5-(5-(dimethylcarbamoyl)pyridin-2-yl)-N-(4-(2-(hydroxymethyl)pyrrolidine-1-carboxamido)benzyl)-1-isopropyl-4,5,6,7-tetrahydro-1H-pyrazolo[4,3-c]pyridine-3-carboxamide]
7.92	7.29	–	–	CC(C)n1nc(C(=O)NCc2ccc(NC(=O)N(C)CC3COCCO3)cc2)c2c1CCN(c1ccc(C(=O)N(C)C)cn1)C2 (racemic) [Example 176, rac-(R)-N-(4-(3-((1,4-dioxan-2-yl)methyl)-3-methylureido)benzyl)-5-(5-(dimethylcarbamoyl)pyridin-2-yl)-1-isopropyl-4,5,6,7-tetrahydro-1H-pyrazolo[4,3-c]pyridine-3-carboxamide]
–	–	8.30	7.72	CCc1nc(C(=O)NCc2ccc(NC(=O)N(C)C)cc2)c2n1C(C)CN(c1ccc(C(=O)N(C)C)cn1)C2 (racemic) [Example 205, rac-(R)-7-(5-(dimethylcarbamoyl)pyridin-2-yl)-N-(4-(3,3-dimethylureido)benzyl)-3-ethyl-5-methyl-5,6,7,8-tetrahydroimidazo[1,5-a]pyrazine-1-carboxamide]
–	–	9.00	8.00	CCC1CN(c2ccc(C(=O)N(C)C)cn2)Cc2c(C(=O)NCc3ccc(NC(=O)N(C)C)cc3)nn(C(C)C)c21 (racemic) [Example 246, rac-(R)-5-(5-(dimethylcarbamoyl)pyridin-2-yl)-N-(4-(3,3-dimethylureido)benzyl)-7-ethyl-1-isopropyl-4,5,6,7-tetrahydro-1H-pyrazolo[4,3-c]pyridine-3-carboxamide]
–	–	8.22	7.51	CCC1Cc2c(c(C(=O)NCc3ccc(NC(=O)N(C)C)cc3)nn2C(C)C)CN1c1ccc(C(=O)N(C)C)cn1 (racemic) [Example 249, rac-(R)-5-(5-(dimethylcarbamoyl)pyridin-2-yl)-N-(4-(3,3-dimethylureido)benzyl)-6-ethyl-1-isopropyl-4,5,6,7-tetrahydro-1H-pyrazolo[4,3-c]pyridine-3-carboxamide]
–	–	8.52	7.32	CC(C)n1nc(C(=O)NCc2ccc(NC(=O)N(C)C)cc2)c2c1CC(C(F)(F)F)N(c1ccc(C(=O)N(C)C)cn1)C2 (racemic) [Example 255, rac-(R)-5-(5-(dimethylcarbamoyl)pyridin-2-yl)-N-(4-(3,3-dimethylureido)benzyl)-1-isopropyl-6-(trifluoromethyl)-4,5,6,7-tetrahydro-1H-pyrazolo[4,3-c]pyridine-3-carboxamide]
–	–	8.00	7.19	CCC1Cc2c(c(C(=O)NCc3ccc(NC(=O)N(C)C)cc3)nn2C)CN1c1ccc(C(=O)N(C)C)cn1 (racemic) [Example 260, rac-(R)-5-(5-(dimethylcarbamoyl)pyridin-2-yl)-N-(4-(3,3-dimethylureido)benzyl)-6-ethyl-1-methyl-4,5,6,7-tetrahydro-1H-pyrazolo[4,3-c]pyridine-3-carboxamide]
–	–	8.30	7.43	CC(C)C1CN(c2ccc(C(=O)N(C)C)cn2)Cc2c(C(=O)NCc3ccc(NC(=O)N(C)C)cc3)nn(C)c21 (racemic) [Example 265, rac-(R)-5-(5-(dimethylcarbamoyl)pyridin-2-yl)-N-(4-(3,3-dimethylureido)benzyl)-7-isopropyl-1-methyl-4,5,6,7-tetrahydro-1H-pyrazolo[4,3-c]pyridine-3-carboxamide]
–	–	9.00	8.05	CCn1nc(C(=O)NCc2ccc(NC(=O)N(C)C)cc2)c2c1C(C(F)(F)F)CN(c1ccc(C(=O)N(C)C)cn1)C2 (racemic) [Example 282, rac-(R)-5-(5-(dimethylcarbamoyl)pyridin-2-yl)-N-(4-(3,3-dimethylureido)benzyl)-1-ethyl-7-(trifluoromethyl)-4,5,6,7-tetrahydro-1H-pyrazolo[4,3-c]pyridine-3-carboxamide]
–	–	5.97	5.16	CCn1nc2c(c1C(=O)NCc1ccc(NC(=O)N(C)C)cc1)CN(c1ccc(C(=O)N(C)C)cn1)[C@H](C)[C@@H]2C (racemic) [Example 314, rac-(6R,7S)-5-(5-(dimethylcarbamoyl)pyridin-2-yl)-N-(4-(3,3-dimethylureido)benzyl)-2-ethyl-6,7-dimethyl-4,5,6,7-tetrahydro-2H-pyrazolo[4,3-c]pyridine-3-carboxamide]
–	–	8.52	7.66	CC1CN(c2ccc(C(=O)N(C)C)cn2)Cc2c(C(=O)NCc3ccc(NC(=O)N(C)C)cc3)nn(C3COC3)c21 (racemic) [Example 321, rac-(R)-5-(5-(dimethylcarbamoyl)pyridin-2-yl)-N-(4-(3,3-dimethylureido)benzyl)-7-methyl-1-(oxetan-3-yl)-4,5,6,7-tetrahydro-1H-pyrazolo[4,3-c]pyridine-3-carboxamide]
–	–	7.11	5.87	CC(C)n1nc(C(=O)NCc2ccc(NC(=O)N(C)C)cc2)c2c1CCN(c1ccc(C3CCCO3)cn1)C2 (racemic) [Example 322, rac-(R)—N-(4-(3,3-Dimethylureido)benzyl)-1-isopropyl-5-(5-(tetrahydrofuran-2-yl)pyridin-2-yl)-4,5,6,7-tetrahydro-1H-pyrazolo[4,3-c]pyridine-3-carboxamide]
